Here are results for 23 compounds from ChEMBL document CHEMBL1124218, “Inhibition of murine thymidylate synthase and human dihydrofolate reductase by 5,8-dideaza analogues of folic acid and aminopterin” (J Med Chem, 1988).

For the experiment, the target named is Thymidylate synthase (Mus musculus, UniProt P07607). The experiment can be described thus: Inhibitory activity against thymidylate synthase isolated from L1210 leukemia cells. Format: cell-free. To be noted: read-out: I50.
Sequence of Thymidylate synthase (P07607 whole entry): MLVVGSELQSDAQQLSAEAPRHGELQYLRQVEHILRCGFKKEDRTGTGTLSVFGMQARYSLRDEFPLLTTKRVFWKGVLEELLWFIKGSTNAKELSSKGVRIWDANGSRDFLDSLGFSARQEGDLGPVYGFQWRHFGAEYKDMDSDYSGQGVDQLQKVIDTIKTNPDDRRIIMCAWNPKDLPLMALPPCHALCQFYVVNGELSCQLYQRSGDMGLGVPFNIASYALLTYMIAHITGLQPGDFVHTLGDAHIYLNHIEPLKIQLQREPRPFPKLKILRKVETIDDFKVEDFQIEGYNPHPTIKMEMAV

As for `Cc1c(N(C)Cc2ccc(C(=O)NC(CCC(=O)O)C(=O)O)cc2)ccc2nc(N)nc(O)c12` (stereo not drawn), the IC50 is 0.7 µM.
Consider `Nc1nc(N)c2cc(N(C=O)Cc3ccc(C(=O)NC(CCC(=O)O)C(=O)O)cc3)ccc2n1` (stereo not drawn), for which the IC50 is over 10 µM.
Regarding `Nc1nc(O)c2cc(CSc3ccc(C(=O)NC(CCC(=O)O)C(=O)O)cc3)ccc2n1` (stereo not drawn), the IC50 was determined as 0.22 µM.
With `Nc1nc(O)c2cc(N(C=O)Cc3ccc(C(=O)NC(CCC(=O)O)C(=O)O)cc3)ccc2n1` (stereo not drawn), the IC50 was determined as 11 µM.
With `Nc1nc(N)c2cc(NCc3ccc(C(=O)NC(CCC(=O)O)C(=O)O)cc3)ccc2n1` (stereo not drawn), the IC50 was found to be 0.55 µM.
In the case of `Nc1nc(=O)c2cc(NCc3ccc(C(=O)NC(CCC(=O)O)C(=O)O)cc3)ccc2[nH]1` (stereo not drawn), the IC50 was determined as 1.3 µM.
As to `Nc1nc(O)c2c(Cl)c(NCc3ccc(C(=O)NC(CCC(=O)O)C(=O)O)cc3)ccc2n1` (stereo not drawn), the IC50 was found to be 4 µM.
For the compound `Cc1c(NCc2ccc(C(=O)NC(CCC(=O)O)C(=O)O)cc2)ccc2nc(N)nc(N)c12` (stereo not drawn), the IC50 worked out at 0.15 µM.
In the case of `Nc1nc(N)c2c(Cl)c(NCc3ccc(C(=O)NC(CCC(=O)O)C(=O)O)cc3)ccc2n1` (stereo not drawn), the IC50 was 0.098 µM.
In the case of `CN(Cc1ccc2nc(N)nc(O)c2c1)c1ccc(C(=O)NC(CCC(=O)O)C(=O)O)cc1` (stereo not drawn), the IC50 was found to be 0.13 µM.
`Cc1c(NCc2ccc(C(=O)NC(CCC(=O)O)C(=O)O)cc2)ccc2nc(N)nc(O)c12` (stereo not drawn): the IC50 amounted to 2.2 µM.
Take `C#CCN(Cc1ccc(C(=O)NC(CCC(=O)O)C(=O)O)cc1)c1ccc2nc(N)nc(O)c2c1` (stereo not drawn): the IC50 came out at 8.6 µM.
Regarding `Nc1nc(O)c2cc(CN(C=O)c3ccc(C(=O)NC(CCC(=O)O)C(=O)O)cc3)ccc2n1` (stereo not drawn), the IC50 worked out at 9.8 µM.
For `CN(Cc1ccc2nc(N)nc(N)c2c1)c1ccc(C(=O)NC(CCC(=O)O)C(=O)O)cc1` (stereo not drawn), the IC50 is 0.6 µM.
With `C#CCN(Cc1ccc(C(=O)NC(CCC(=O)O)C(=O)O)cc1)c1ccc2nc(N)nc(N)c2c1` (stereo not drawn), the IC50 was 4.4 µM.
As for `Nc1nc(N)c2c(Cl)c(CNc3ccc(C(=O)NC(CCC(=O)O)C(=O)O)cc3)ccc2n1` (stereo not drawn), the IC50 turned out to be 0.19 µM.
As for `CN(Cc1ccc(C(=O)NC(CCC(=O)O)C(=O)O)cc1)c1ccc2nc(N)nc(O)c2c1` (stereo not drawn), the IC50 worked out at 0.2 µM.
Consider `Nc1nc(O)c2cc(COc3ccc(C(=O)NC(CCC(=O)O)C(=O)O)cc3)ccc2n1` (stereo not drawn), for which the IC50 stood at 12 µM.
In the case of `C=CCN(Cc1ccc(C(=O)NC(CCC(=O)O)C(=O)O)cc1)c1ccc2nc(N)nc(N)c2c1` (stereo not drawn), the IC50 is 3.2 µM.
As for `CN(Cc1ccc(C(=O)NC(CCC(=O)O)C(=O)O)cc1)c1ccc2nc(N)nc(N)c2c1` (stereo not drawn), the IC50 was 0.033 µM.
In the case of `C=CCN(Cc1ccc(C(=O)NC(CCC(=O)O)C(=O)O)cc1)c1ccc2nc(N)nc(O)c2c1` (stereo not drawn), the IC50 is 6.1 µM.
In the case of `Nc1nc(N)c2cc(CN(C=O)c3ccc(C(=O)NC(CCC(=O)O)C(=O)O)cc3)ccc2n1` (stereo not drawn), the IC50 is over 10 µM.
With `Nc1nc(N)c2cc(CNc3ccc(C(=O)NC(CCC(=O)O)C(=O)O)cc3)ccc2n1` (stereo not drawn), the IC50 was 5 µM.
